Like-named read-outs stand apart in the source and are kept apart here.
How the values were obtained:
[1] = target: T1, VEGF-R2 (Homo sapiens, UniProt P35968, DEL940-989/E990V); experiment: VEGF-R2 Assay (coupled spectrophotometric FLVK-P / ELISA); format: biochemical; conditions: for inhibition at 1 µM: read-out: VEGF % Inhib. at 1 μM
T1 construct: VEGF-R2Δ50 contains residues 806–939 and 990–1171; made in house; host or cells: baculovirus/insect cells
Text: VEGF-R2 Construct for Assay
This construct determines the ability of a test compound to inhibit tyrosine kinase activity. A construct (VEGF-R2Δ50) of the cytosolic domain of human vascular endothelial growth factor receptor 2 (VEGF-R2) lacking the 50 central residues of the 68 residues of the kinase insert domain was expressed in a baculovirus/insect cell system. Of the 1356 residues of full-length VEGF-R2, VEGF-R2Δ50 contains residues 806–939 and 990–1171, and also one point mutation (E990V) within the kinase insert domain relative to wild-type VEGF-R2. […] See Parast et al., Biochemistry, 37,16788–16801 (1998).
Coupled Spectrophotometric (FLVK-P) Assay
The production of ADP from ATP that accompanies phosphoryl transfer was coupled to oxidation of NADH using phosphoenolpyruvate (PEP) and a system having pyruvate kinase (PK) and lactic dehydrogenase (LDH). The oxidation of NADH was monitored by following the decrease of absorbance at 340 nm (e340=6.22 cm^1 mM^−1) using a Beckman DU 650 spectrophotometer. Assay conditions for phosphorylated VEGF-R2A50 (indicated as FLVK-P in the tables below) were the following: 1 mM PEP; 250 μM NADH; 50 units of LDH/mL; 20 units of PK/mL; 5 mM DTT; 5.1 mM poly(E4Y1); 1 mM ATP; and 25 mM MgCl2 in 200 mM Hepes, pH 7.5. Assay conditions for unphosphorylated VEGF-R2A50 (indicated as FLVK in the tables) were the following: 1 mM PEP; 250 μM NADH; 50 units of LDH/mL; 20 units of PK/mL; 5 mM DTT; 20 mM poly(E4Y1); 3 mM ATP; and 60 mM MgCl2 and 2 mM MnCl2 in 200 mM Hepes, pH 7.5. Assays were initiated with 5 to 40 nM of enzyme. Ki values were determined by measuring enzyme activity in the presence of varying concentrations of test compounds. The data were analyzed using Enzyme Kinetic and Kaleidagraph software.
Formation of phosphogastrin was monitored using biotinylated gastrin peptide (1–17) as substrate. Biotinylated phosphogastrin was immobilized using streptavidin coated 96-well microtiter plates followed by detection using anti-phosphotyrosine-antibody conjugated to horseradish peroxidase. The activity of horseradish peroxidase was monitored using 2,2′-azino-di-[3-ethylbenzathiazoline sulfonate(6)] diammonium salt (ABTS). Typical assay solutions contained: 2 μM biotinylated gastrin peptide; 5 mM DTT; 20 μM ATP; 26 mM MgCl2; and 2 mM MnCl2 in 200 mM Hepes, pH 7.5. The assay was initiated with 0.8 nM of phosphorylated VEGF-R2Δ50. Horseradish peroxidase activity was assayed using ABTS, 10 mM. The horseradish peroxidase reaction was quenched by addition of acid (H2SO4), followed by absorbance reading at 405 nm. Ki values were determined by measuring enzyme activity in the presence of varying concentrations of test compounds. The data were analyzed using Enzyme Kinetic and Kaleidagraph software.

[2] = tested on: HCT 116 cell line; experiment: Inhibition of Cell Growth (MTT tetrazolium salt assay); format: cell-based; conditions: Homo sapiens
How it was run: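 HCT 116 cells in McCoy's 5A were dosed 4 h after plating, in 0.5% (v/v) DMSO, then held 4–6 days at 37 °C, 5% CO2. MTT at 0.2 mg/mL final for 4 h; DMSO-solubilized formazan read at 540 nm. IC50 taken from the linear part of a semi-log plot versus DMSO-only controls.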

[3] = HCT 116, MTT, 50% inhibition of growth, read-out: HCT 116 IC50
[4] = HCT 116, MTT, IC90, read-out: HCT 116 IC90
[5] = HCT-116, read-out: HCT 116 IC50 (uM)
[6] = HCT-116, read-out: HCT 116 IC90 (uM)

T1 sequence (P35968 with tags, fused parts or gaps DEL940-989/E990V limits assumed): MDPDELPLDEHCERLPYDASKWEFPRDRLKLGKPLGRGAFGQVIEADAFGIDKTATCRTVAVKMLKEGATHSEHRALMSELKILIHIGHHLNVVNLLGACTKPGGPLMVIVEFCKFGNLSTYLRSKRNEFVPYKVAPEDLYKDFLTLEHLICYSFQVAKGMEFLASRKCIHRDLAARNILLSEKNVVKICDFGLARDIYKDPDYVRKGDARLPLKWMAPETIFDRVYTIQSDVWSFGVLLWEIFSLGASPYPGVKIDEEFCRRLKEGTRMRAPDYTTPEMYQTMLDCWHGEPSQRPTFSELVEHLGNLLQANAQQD

## C(=C\c1n[nH]c2ccc(-c3cncc4ccccc34)cc12)/c1ccccc1 [Example 16]
[1]
  inhibition at 1 µM: 36%
[2]; [3]
  IC50: 3 µM
[2]; [4]
  IC90: 5 µM

## OCc1cccc2[nH]c(-c3n[nH]c4ccc(-c5cncc6ccccc56)cc34)nc12 [Example 29, [2-(5-Isoquinolin-4-yl-1H-indazol-3-yl)-1H-benzoimidazol-4-yl]-methanol]
[1]
  inhibition at 1 µM: 6%
[2]; [3]
  IC50: 0.18 µM
[2]; [4]
  IC90: 0.8 µM

## CN(C)Cc1cccc2[nH]c(-c3n[nH]c4ccc(-c5cncc6ccccc56)cc34)nc12 [Example 31, [2-(5-Isoquinolin-4-yl-1H-indazol-3-yl)-1H-benzoimidazol-4-ylmethyl]-dimethyl-amine]
[1]
  Ki: 2900 nM
  inhibition at 1 µM: 17%

## CCN(CC)Cc1cccc2[nH]c(-c3n[nH]c4ccc(-c5cncc6ccccc56)cc34)nc12 [Example 36, Diethyl-[2-(5-isoquinolin-4-yl-1H-indazol-3-yl)-1H-benzoimidazol-4-ylmethyl]-amine]
[1]
  inhibition at 1 µM: 15%
[2]; [3]
  IC50: 0.024 µM
[2]; [4]
  IC90: 0.06 µM

## CCNCc1cccc2[nH]c(-c3n[nH]c4ccc(-c5cncc6ccccc56)cc34)nc12 [Example 37, Ethyl-[2-(5-isoquinolin-4-yl-1H-indazol-3-yl)-1H-benzoimidazol-4-ylmethyl]-amine]
[1]
  inhibition at 1 µM: 17%
[2]; [5]
  IC50: 0.041 µM
[2]; [6]
  IC90: 0.12 µM

## CC(C)NCc1cccc2[nH]c(-c3n[nH]c4ccc(-c5cncc6ccccc56)cc34)nc12 [Example 38, Isopropyl-[2-(5-isoquinolin-4-yl-1H-indazol-3-yl)-1H-benzoimidazol-4-ylmethyl]-amine]
[1]
  inhibition at 1 µM: 9%
[2]; [5]
  IC50: 0.029 µM
[2]; [6]
  IC90: 0.06 µM

## CCc1cncc(-c2ccc3[nH]nc(/C=C/c4ccccc4)c3c2)c1Cl [Example 46, 5-(4-Chloro-5-ethyl-pyridin-3-yl)-3-(E)-styryl-1H-indazole]
[1]
  inhibition at 1 µM: 51%

## c1ccc2[nH]c(-c3n[nH]c4ccc(-c5cccc6[nH]ccc56)cc34)nc2c1 [Example 48, 3-(1H-Benzoimidazol-2-yl)-5-(1H-indol-4-yl)-1H-indazole]
[2]; [3]
  IC50: 3.9 µM
[2]; [4]
  IC90: 5 µM

## Clc1ccncc1-c1ccc2[nH]nc(-c3nc4ccccc4[nH]3)c2c1 [Example 52, 3-(1H-Benzoimidazol-2-yl)-5-(4-chloro-pyridin-3-yl)-1H-indazole]
[1]
  inhibition at 1 µM: 38%
[2]; [3]
  IC50: 0.5 µM
[2]; [4]
  IC90: 2.2 µM

## Cc1c(-c2ccncc2)cncc1-c1ccc2[nH]nc(-c3nc4ccccc4[nH]3)c2c1 [Example 53, 5-[3-(1H-Benzoimidazol-2-yl)-1H-indazol-5-yl]-4-methyl-[3,4′]bipyridinyl]
[1]
  inhibition at 1 µM: 32%
[2]; [3]
  IC50: 0.2 µM
[2]; [4]
  IC90: 0.75 µM

## c1ccc2[nH]c(-c3n[nH]c4ccc(-c5cncc6c5CCCN6)cc34)nc2c1 [Example 54]
[1]
  inhibition at 1 µM: 46%
[2]; [3]
  IC50: 0.079 µM
[2]; [4]
  IC90: 0.23 µM

## O=C(Nc1cccc2c(-c3ccc4[nH]nc(-c5nc6ccccc6[nH]5)c4c3)cncc12)c1cccnc1 [Example 55, N-{4-[3-(1H-Benzoimidazol-2-yl)-1H-indazol-5-yl]-isoquinolin-8-yl}-nicotinamide]
[1]
  inhibition at 1 µM: 32%
[2]; [3]
  IC50: 1.5 µM
[2]; [4]
  IC90: 5 µM

## Cc1c(-c2cccnc2)cncc1-c1ccc2[nH]nc(-c3nc4ccccc4[nH]3)c2c1 [Example 58]
[1]
  inhibition at 1 µM: 17%
[2]; [3]
  IC50: 0.46 µM
[2]; [4]
  IC90: 1.3 µM

## Cc1c(/C=C/CO)cncc1-c1ccc2[nH]nc(-c3nc4ccccc4[nH]3)c2c1 [Example 59, (E)-3-{5-[3-(1H-Benzoimidazol-2-yl)-1H-indazol-5-yl]-4-methyl-pyridin-3-yl}-prop-2-en-1-ol]
[1]
  inhibition at 1 µM: 31%
[2]; [3]
  IC50: 0.2 µM
[2]; [4]
  IC90: 0.48 µM

## Cc1c(CCCO)cncc1-c1ccc2[nH]nc(-c3nc4ccccc4[nH]3)c2c1 [Example 60, (E)-3-{5-[3-(1H-Benzoimidazol-2-yl)-1H-indazol-5-yl]-4-methyl-pyridin-3-yl}-propan-1-ol]
[1]
  inhibition at 1 µM: 26%
[2]; [3]
  IC50: 0.2 µM
[2]; [4]
  IC90: 0.5 µM

## CCc1c(-c2ccncc2)cncc1-c1ccc2[nH]nc(-c3nc4ccccc4[nH]3)c2c1 [Example 61, 5-[3-(1H-Benzoimidazol-2yl)-1H-indazol-5-yl]-4ethyl-[3,4′]bipyridinyl]
[1]
  inhibition at 1 µM: 18%
[2]; [3]
  IC50: 0.22 µM
[2]; [4]
  IC90: 0.5 µM

## Cc1c(-c2cccc(CO)c2)cncc1-c1ccc2[nH]nc(-c3nc4ccccc4[nH]3)c2c1 [Example 69, (3-{5-[3-(1H-Benzoimidazol-2-yl)-1H-indazol-5-yl]-4-methyl-pyridin-3-yl}-phenyl)-methanol]
[1]
  inhibition at 1 µM: 38%
[2]; [3]
  IC50: 0.69 µM
[2]; [4]
  IC90: 2.1 µM

## CS(=O)(=O)Nc1ccc2nc(-c3n[nH]c4ccc(-c5cncc6ccccc56)cc34)[nH]c2c1 [Example 70, N-[2-(5-Isoquinolin-4-yl-1H-indazol-3-yl)-3H-benzoimidazol-5-yl]-methanesulfonamide]
[1]
  inhibition at 1 µM: 45%
[2]; [3]
  IC50: 0.18 µM
[2]; [4]
  IC90: 0.44 µM

## Cc1c(-c2ccncc2)cncc1-c1ccc2[nH]nc(-c3nc4ccc(NS(C)(=O)=O)cc4[nH]3)c2c1 [Example 71, N-{2-[5-(4-methyl-[3,4′]bipyridinyl-5-yl)-1H-indazol-3-yl)-3H-benzoimidazol-5-yl]-methanesulfonamide]
[1]
  inhibition at 1 µM: 42%
[2]; [3]
  IC50: 0.7 µM
[2]; [4]
  IC90: 2 µM

## Cc1c(CO)cncc1-c1ccc2[nH]nc(-c3nc4ccccc4[nH]3)c2c1 [Example 72, {5-[3-(1H-Benzoimidazol-2-yl)-1H-indazol-5-yl]-4-methyl-pyridin-3-yl}-methanol]
[1]
  inhibition at 1 µM: 24%
[2]; [3]
  IC50: 0.15 µM
[2]; [4]
  IC90: 0.53 µM

## Cc1c(CN(C)C)cncc1-c1ccc2[nH]nc(-c3nc4ccccc4[nH]3)c2c1 [Example 73, {5-[3-(1H-Benzoimidazol-2-yl)-1H-indazol-5-yl]-4-methyl-pyridin-3-ylmethyl}-dimethyl-amine]
[1]
  inhibition at 1 µM: 15%
[2]; [3]
  IC50: 0.2 µM
[2]; [4]
  IC90: 0.6 µM

## CCNCc1cncc(-c2ccc3[nH]nc(-c4nc5ccccc5[nH]4)c3c2)c1C [Example 74, {5-[3-(1H-Benzoimidazol-2-yl)-1H-indazol-5-yl]-4-methyl-pyridin-3-ylmethyl}-ethyl-amine]
[1]
  inhibition at 1 µM: 14%
